In brackets after ≈: the same amount, converted by molar mass. Activity calls are given as the source filed them. The calls are words filed in the database; no cut-off is given here.
Legend:
HT-29 [1] = test: Cell cycle arrest in human HT-29 cells assessed as accumulation of cells in G2/M phase at 0.1 to 5 nM measured after 24 hrs by PI staining based flow cytometry method; type: functional; conditions: dose 0.1-5 nM, DDE = dose-dependent effect
[2] = Antitumor activity against mouse MCA-205 cells allografted in female C57BL/6 mouse assessed as decrease in tumor growth at 0.25 to 0.5 mg/kg, IT(Intratumoral); type: functional; design: scale not given: the % may be the effect or the level left; conditions: dose lower […], dose upper 0.5 mg/kg
HT-29 [3] = test: Cell cycle arrest in human HT-29 cells assessed as accumulation of cells in G2/M phase at 5 nM measured after 24 hrs by PI staining based flow cytometry method; type: functional
A549 = test: Antiproliferative activity against human A549 cells after 72 hrs by CellTiter Glo assay; type: functional, cell-based; conditions: A549, 72 h
SK-OV-3 = test: Antiproliferative activity against human SK-OV-3 cells after 72 hrs by CellTiter Glo assay; type: functional, cell-based; conditions: SK-OV-3, 72 h
[4] = Antitumor activity against mouse MCA-205 cells allografted in female C57BL/6 mouse assessed as increase in overall survival at 0.25 to 0.5 mg/kg, IT(Intratumoral); type: functional; conditions: dose lower […], dose upper 0.5 mg/kg
Tubulin (Homo sapiens) [5] = biological target: T1, Tubulin (Homo sapiens) (UniProt P68371+Q9H4B7+P0DPH7+P68366+Q13509+Q71U36+P04350+Q3ZCM7+P07437+P68363+Q9BQE3+Q6PEY2+Q13885+Q9BVA1+Q9BUF5); test: Inhibition of tubulin polymerization in human MDA-MB-231 cells assessed as microtubule network polymerization at 250 nM after 30 mins by immunofluorescence analysis; type: cell-based
[6] = Antitumor activity against mouse MCA-205 cells allografted in female C57BL/6 mouse assessed as tumor regression at […], IT(Intratumoral); type: functional
Tubulin (Homo sapiens) [7] = biological target: T1, Tubulin (Homo sapiens); test: Inhibition of tubulin polymerization (unknown origin) at 10 uM in presence of GTP; type: protein-complex assay
Histone deacetylase 8 = biological target: T2, Histone deacetylase 8 (Homo sapiens, UniProt Q9BY41); test: Inhibition of HDAC8 (unknown origin) measured by fluorometry assay
T2 sequence (Q9BY41 whole entry): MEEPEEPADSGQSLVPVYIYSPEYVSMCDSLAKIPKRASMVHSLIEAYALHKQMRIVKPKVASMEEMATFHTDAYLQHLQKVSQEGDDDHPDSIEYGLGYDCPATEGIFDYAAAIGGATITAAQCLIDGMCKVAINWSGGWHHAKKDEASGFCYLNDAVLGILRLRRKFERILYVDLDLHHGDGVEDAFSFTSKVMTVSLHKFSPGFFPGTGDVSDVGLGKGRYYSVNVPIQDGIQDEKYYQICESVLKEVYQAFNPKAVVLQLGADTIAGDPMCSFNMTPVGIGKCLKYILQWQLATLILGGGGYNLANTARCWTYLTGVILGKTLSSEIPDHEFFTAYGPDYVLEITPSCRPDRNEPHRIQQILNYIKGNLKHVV

HT-29 [8] = test: Induction of mitochondrial dysfunction in human HT-29 cells at 2 nM measured after 48 hrs by JC-1 staining based flow cytometry; type: functional, cell-based
K562 [9] = test: Antiproliferative activity against human K562 cells after 72 hrs by CellTiter Glo assay; type: functional, cell-based; conditions: K562, 72 h
MCA-205 = test: Antitumor activity against mouse MCA-205 cells allografted in female C57BL/6 mouse assessed as complete tumor regression at 0.5 mg/kg, IT(Intratumoral); type: functional, organism-based
HCT-116 = test: Antiproliferative activity against human HCT-116 cells after 72 hrs by CellTiter Glo assay; type: functional, cell-based; conditions: Homo sapiens, HCT-116; time 72 hrs
K562 [10] = test: Antiproliferative activity against imatinib-resistant human K562 cells over expressing MDR1 after 72 hrs by CellTiter Glo assay; type: functional, cell-based; conditions: K562, 72 h
[11] = Solubility of compound in water; type: physicochemical
MDA-MB-231 = test: Antiproliferative activity against human MDA-MB-231 cells after 72 hrs by CellTiter Glo assay; type: functional, cell-based; conditions: MDA-MB-231, 72 h
[12] = Metabolic stability in human liver microsomes assessed as intrinsic clearance per mg protein measured upto 6 hrs in presence of NADPH generating system by HPLC-MS/MS analysis; type: ADME, Microsome; conditions: read-out: CLH
[13] = Metabolic stability in rat liver microsomes assessed as intrinsic clearance per mg protein measured upto 6 hrs in presence of NADPH generating system by HPLC-MS/MS analysis; type: ADME, Microsome; conditions: read-out: CLH
HT-29 [14] = test: Antiproliferative activity against human HT-29 cells after 72 hrs by CellTiter Glo assay; type: functional, cell-based; conditions: HT-29, 72 h
[15] = Metabolic stability in rat liver microsomes assessed as half-life measured upto 6 hrs in presence of NADPH generating system by HPLC-MS/MS analysis; type: ADME, Microsome
Tubulin (Homo sapiens) [16] = biological target: T1, Tubulin (Homo sapiens); test: Inhibition of tubulin polymerization in human HeLa cells assessed as microtubule network polymerization at 250 nM after 30 mins by immunofluorescence analysis; type: cell-based

## COc1ccc(N(C)c2cc(C#N)nc3ccccc23)cc1/C=C/C(=O)NO
HT-29 [1]
  Activity: Dde
[2]
  Activity: 70%
HT-29 [3]
  Activity: >95%
A549
  IC50: 0.84 nM
SK-OV-3
  IC50: 0.6 nM
[4]
  Activity: 60%
Tubulin (Homo sapiens) [5]
  inhibition: Active
[6]
  Activity: 40%
Tubulin (Homo sapiens) [7]
  inhibition: Active
Histone deacetylase 8
  IC50: 150 nM
HT-29 [8]
  Activity: Active
K562 [9]
  IC50: 0.35 nM
MCA-205
  Activity: Active
HCT-116
  GI50: 0.5 nM
K562 [10]
  IC50: 0.56 nM
[11]
  solubility: 0.0687 mg/mL (≈ 183 µM)
MDA-MB-231
  IC50: 0.7 nM
[12]
  microsomal CLint: 0.36 µL/min/mg
[13]
  microsomal CLint: 1.75 µL/min/mg
HT-29 [14]
  IC50: 0.62 nM
[15]
  half-life: 6.6 h
Tubulin (Homo sapiens) [16]
  inhibition: Active
